Consider one molecule from patent publication US5508311A, “Aliphatic propargylamines as selective MAO-B inhibitors and as neuroprotective agents” (University of Saskatchewan, priority 1993, dated 1996).

The target of data set [1] is T1, MAO-A (Mus musculus, UniProt Q64133).
T1 construct: MAO activities in the mouse brain after; from tissue
T1 sequence (Q64133 1-526): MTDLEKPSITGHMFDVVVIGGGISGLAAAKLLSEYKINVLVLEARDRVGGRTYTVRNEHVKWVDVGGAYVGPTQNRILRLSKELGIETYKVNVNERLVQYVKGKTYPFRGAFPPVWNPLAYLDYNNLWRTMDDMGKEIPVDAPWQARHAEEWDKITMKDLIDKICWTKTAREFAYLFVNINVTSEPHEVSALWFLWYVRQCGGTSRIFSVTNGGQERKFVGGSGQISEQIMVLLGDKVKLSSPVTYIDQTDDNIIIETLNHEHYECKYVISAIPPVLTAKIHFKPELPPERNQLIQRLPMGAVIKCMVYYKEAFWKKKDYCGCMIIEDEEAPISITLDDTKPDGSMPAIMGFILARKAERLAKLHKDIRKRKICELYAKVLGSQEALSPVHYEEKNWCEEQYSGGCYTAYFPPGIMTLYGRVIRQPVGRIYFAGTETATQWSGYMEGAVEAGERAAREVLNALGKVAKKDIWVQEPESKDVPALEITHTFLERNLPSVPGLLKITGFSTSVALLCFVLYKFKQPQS
The data set can be described thus: in vivo. The settings on record: ip, 2 h, read-out: 5-HT ID50. As to the method:
Albino Swiss mice were used in this study. The animals were injected intraperitoneally with different doses of the aliphatic propargylamines in 100 μL saline.
0.5, 1, 2, 5, 10, 20, 50, 100 mg/Kg. Striata were dissected from the brai
two hours after i.p. administration of the drugs. MAOA and MAOB activitie
were determined immediately. The values were estimated from doseresponse

Another data set concerns the target T2, MAO-B (Mus musculus, UniProt Q8BW75).
T2 construct: MAO activities in the mouse brain after; from tissue
T2 sequence (Q8BW75 1-520): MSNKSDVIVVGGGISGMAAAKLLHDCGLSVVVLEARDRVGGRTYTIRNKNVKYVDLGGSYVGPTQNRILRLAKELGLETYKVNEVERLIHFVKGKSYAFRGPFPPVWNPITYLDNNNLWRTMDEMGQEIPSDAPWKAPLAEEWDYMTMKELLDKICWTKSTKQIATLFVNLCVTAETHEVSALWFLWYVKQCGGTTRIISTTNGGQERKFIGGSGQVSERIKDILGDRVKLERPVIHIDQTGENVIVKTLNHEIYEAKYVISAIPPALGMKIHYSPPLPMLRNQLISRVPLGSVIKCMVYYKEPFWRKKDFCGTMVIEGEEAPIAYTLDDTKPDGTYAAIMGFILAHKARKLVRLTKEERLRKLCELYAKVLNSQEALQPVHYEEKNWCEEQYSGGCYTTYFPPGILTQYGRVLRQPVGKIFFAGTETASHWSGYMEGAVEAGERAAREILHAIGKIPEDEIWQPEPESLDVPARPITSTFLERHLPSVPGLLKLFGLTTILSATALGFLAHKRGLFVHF
The data set can be described thus: MAO-B activity in the mouse brain after oral administration (substrate PE). Conditions: 2 hours. In kind it is in vivo. As to the method: (§1) Table 3 indicates the MAO activities in the mouse brain following oral administration of the aliphatic propargylamines.
(§2) of each compound. Striata were dissected from the brain two hours after
(§3) the administration of the drugs. MAOA and MAOB activities were determined
Striata were dissected from the brain two
hours after oral administration of the drugs. MAOB activities were then
determined immediately. The values were estimated from doseresponse

The target in data set [2] is T1, MAO-A. The data set is classed as in vivo. Conditions: mouse, in vivo, po, 10 mg/kg. As to the method:
as §1, §2, §3

Another data set has as its system dopamine neurons. Nature of the data set: Protection of dopamine neurons against MPTP-induced neurotoxicity in the mice brain. The data set is classed as in vivo, mouse. The source says:
Three days later, dopamine levels and dopamine uptake site densities (GBR bindings) were estimated.

The conditions of data set [3]: mouse, in vivo. The source says: The acute toxicity of these compounds is quite low. […]. The aliphatic side-chains of these aliphatic propargyl compounds are similar to those that exist in endogenous lipids and fatty acids and such aliphatic chains are readily oxidized in vivo. […]

Turning to `C#CCN(C)C(C)CCC.Cl.O=C(O)C(=O)O` (stereo not drawn) [Example M-2-PP, N-(2-Pentyl)-N-methylpropargylamine hydrochloride and oxalate], the ED50 on MAO-A [1] is 25 mg/kg; on MAO-B (mouse, oral, average of 5 animals per dose, estimated from dose response curves, read-out: Inhibition of MAO-B activity, dose response (ID50)), 1 mg/kg. The “Relative activity PE” value on MAO-B (oral 10 mg/Kg, PE (1.9 × 10^-5 M), mean ± standard error, saline = 100) is 31 ± 4%. For the same molecule, the “Relative activity 5-HT” value at MAO-A [2] amounted to 89 ± 15. Also, the Dopamine was 8.3 μg/gm with dopamine neurons (0.5 mg/Kg + MPTP) and 8.9 μg/gm with dopamine neurons (2.5 mg/Kg + MPTP). Further, the Dopamine binding site in the data set with dopamine neurons (0.5 mg/Kg + MPTP) came to 312 pmol/mg; with dopamine neurons (2.5 mg/Kg + MPTP), 306 pmol/mg. The “fatality after oral administration” value in data set [3] was “no fatality”.
